# Test results published in article PMC9046198, “Peptidoglycan biosynthesis is driven by lipid transfer along enzyme-substrate affinity gradients” (Nature Communications, 2022).
# Experiments:
# [1] = target: T1, MraY (Aquifex aeolicus, UniProt O66465); assay: native MS, endogenous adducts and exogenous C55-P titration; type: binding
# T1 construct: wild-type MraY, MBP tag removed with HRV3C protease
# T1 sequence (O66465 1-359): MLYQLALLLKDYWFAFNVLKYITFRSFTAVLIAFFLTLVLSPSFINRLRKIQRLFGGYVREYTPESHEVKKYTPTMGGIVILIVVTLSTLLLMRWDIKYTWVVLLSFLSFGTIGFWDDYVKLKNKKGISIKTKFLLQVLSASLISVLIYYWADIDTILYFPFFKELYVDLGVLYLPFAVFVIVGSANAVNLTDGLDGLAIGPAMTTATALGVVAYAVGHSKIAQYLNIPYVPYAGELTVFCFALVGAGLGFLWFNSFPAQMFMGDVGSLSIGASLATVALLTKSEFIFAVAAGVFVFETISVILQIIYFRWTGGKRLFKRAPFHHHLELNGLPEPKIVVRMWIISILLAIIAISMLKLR
# [2] = target: T2, MurG (Escherichia coli, UniProt P17443); assay: turnover by purified MurG (with MraY-bound lipid I) to lipid II monitored by native MS; type: biochemical
# T2 construct: MurG-GFP-His6 fusion, tag removed with TEV protease
# T2 sequence (P17443 2-355): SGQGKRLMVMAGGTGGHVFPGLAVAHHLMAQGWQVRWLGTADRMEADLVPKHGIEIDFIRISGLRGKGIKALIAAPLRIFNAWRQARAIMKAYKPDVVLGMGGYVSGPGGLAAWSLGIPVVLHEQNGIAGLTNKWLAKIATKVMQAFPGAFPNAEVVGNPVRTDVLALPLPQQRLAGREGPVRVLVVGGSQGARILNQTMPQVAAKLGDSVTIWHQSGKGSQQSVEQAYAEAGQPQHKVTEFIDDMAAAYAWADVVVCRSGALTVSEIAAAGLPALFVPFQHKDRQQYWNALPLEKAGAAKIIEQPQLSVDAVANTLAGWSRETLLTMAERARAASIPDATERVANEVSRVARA
# [3] = target: T2, MurG; assay: native MS titration ([…] MurG, […] lipid I), apparent Kd; type: binding
# [4] = target: T2, MurG; assay: native MS titration, apparent Kd; type: binding
# [5] = target: T1, MraY; assay: native MS binding to MraY dimer; also inhibits lipid I synthesis by purified MraY ([…])
compound,measurement,setting,value
"CC(C)=CCC/C(C)=C/CC/C(C)=C/CC/C(C)=C\CC/C(C)=C\CC/C(C)=C\CC/C(C)=C\CC/C(C)=C\CC/C(C)=C\CC/C(C)=C\CC/C(C)=C\COP(=O)(O)O [C55-P, undecaprenyl phosphate]","native MS, endogenous adducts and exogenous C55-P titration",[1],The binding of up to four C55-P molecules per MraY dimer could be clearly resolved
CC(=O)N[C@H]1[C@@H](OP(=O)(O)OP(=O)(O)OC[C@H]2O[C@@H](n3ccc(=O)[nH]c3=O)[C@H](O)[C@@H]2O)O[C@H](CO)[C@@H](O)[C@@H]1O [UDP-GlcNAc],turnover by purified MurG (with MraY-bound lipid I) to lipid II monitored by nat,[2],we incubated MraY with MurG and UDP-GlcNAc and observed the formation of lipid II
CC(=O)N[C@H]1[C@@H](OP(=O)(O)OP(=O)(O)OC/C=C(/C)CC/C=C(/C)CC/C=C(/C)CC/C=C(/C)CC/C=C(/C)CC/C=C(/C)CC/C=C(/C)CC/C=C(/C)CC/C=C(\C)CC/C=C(\C)CCC=C(C)C)O[C@H](CO)[C@@H](O)[C@@H]1O[C@H](C)C(=O)N[C@@H](C)C(=O)N[C@H](CCC(=O)N[C@@H](CCCCN)C(=O)N[C@H](C)C(=O)N[C@H](C)C(=O)O)C(=O)O [lipid I],Kd,[3],1900 ± 400 nM
lipid II,Kd,[4],2600 ± 900 nM
tunicamycin,native MS binding to MraY dimer; also inhibits lipid I synthesis by purified Mra,[5],We also captured the binding of a nucleoside antibiotic tunicamycin to the MraY dimer.
